Results from patent US7517874B2 (priority 2007, dated 2009).
Like-named read-outs stand apart in the source and are kept apart here.

Legend:
[1] = target: human CB1 receptor (hCB1) (Homo sapiens, UniProt P21554); experiment: cell-based; format: cell-based; settings: for +/− HCB1: agonist or inverse agonist at hCB1
In short: (§1)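 Agonism or inverse agonism was assessed as change in intracellular cAMP in CHO-K1 cells expressing human CB1 or rat CB2 (genomic DNA, pcDNA3.1).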

rat CB2 receptor (rCB2) = target: T1, rat CB2 receptor (rCB2) (Rattus norvegicus, UniProt Q9QZN9); experiment: cell-based; format: cell-based; settings: for +/− RCB2: agonist or inverse agonist at rCB2
T1 sequence (Q9QZN9 1-360): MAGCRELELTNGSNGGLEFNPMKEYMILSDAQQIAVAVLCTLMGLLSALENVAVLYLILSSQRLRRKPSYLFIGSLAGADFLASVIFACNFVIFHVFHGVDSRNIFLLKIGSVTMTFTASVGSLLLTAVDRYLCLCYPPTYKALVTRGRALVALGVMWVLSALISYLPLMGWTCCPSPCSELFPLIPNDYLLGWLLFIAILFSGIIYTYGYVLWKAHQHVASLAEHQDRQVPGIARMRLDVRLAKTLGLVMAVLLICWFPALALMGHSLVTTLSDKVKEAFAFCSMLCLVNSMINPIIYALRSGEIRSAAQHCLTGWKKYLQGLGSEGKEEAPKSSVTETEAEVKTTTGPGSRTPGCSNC
In short: as §1

[2] = groups >100 nM-10 μM and >10 μM, cAMP, CHO-K1 hCB1, read-out: EC50 HCB1
[3] = groups >100 nM-10 μM and >10 μM, cAMP, CHO-K1 rCB2, read-out: EC50 RCB2

Sequence of human CB1 receptor (hCB1) (P21554 whole entry): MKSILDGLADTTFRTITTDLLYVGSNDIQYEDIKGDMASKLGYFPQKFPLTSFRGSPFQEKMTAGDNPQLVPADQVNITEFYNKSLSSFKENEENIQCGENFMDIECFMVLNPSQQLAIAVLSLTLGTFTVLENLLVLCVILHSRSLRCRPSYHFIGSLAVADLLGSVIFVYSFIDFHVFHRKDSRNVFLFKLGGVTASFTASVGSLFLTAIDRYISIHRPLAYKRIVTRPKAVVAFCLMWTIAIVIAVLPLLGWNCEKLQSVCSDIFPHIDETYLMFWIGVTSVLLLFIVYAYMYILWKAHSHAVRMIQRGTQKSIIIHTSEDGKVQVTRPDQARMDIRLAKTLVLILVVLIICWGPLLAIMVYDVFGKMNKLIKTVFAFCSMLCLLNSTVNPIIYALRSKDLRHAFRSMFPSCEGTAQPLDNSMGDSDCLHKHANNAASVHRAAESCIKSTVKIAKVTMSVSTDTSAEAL

Compound	EC50 [1] [nM]	+/− RCB2 (rat CB2 receptor (rCB2))	further results
CC(=O)N1CCn2c(-c3ccccc3)nc(C(=O)NN3CCCCC3)c2C1 [Compound 175, 7-acetyl-3-phenyl-N-(piperidin-1-yl)-5,6,7,8-tetrahydroimidazo[1,5-a]pyrazine-1-carboxamide]	> 10000		EC50 (rat CB2 receptor (rCB2)): > 10000 nM
COC(=O)N1CCn2c(-c3ccccc3)nc(C(=O)NC3C4(C)CCC(C4)C3(C)C)c2C1 (stereo not shown) [Compound 178, methyl 3-phenyl-1-(1,3,3-trimethylbicyclo[2.2.1]heptan-2-ylcarbamoyl)-5,6-dihydroimidazo[1,5-a]pyrazine-7(8H)-carboxylate]	> 10000	−	
CNC(=O)[C@@H](NC(=O)c1nc(-c2ccccc2)n2c1CNCCC2)C(C)(C)O [Compound 606, (S)-N-(3-hydroxy-3-methyl-1-(methylamino)-1-oxobutan-2-yl)-3-phenyl-6,7,8,9-tetrahydro-5H-imidazo[1,5-a][1,4]diazepine-1-carboxamide]	> 10000	+	
CN1CCn2c(-c3ccc(Cl)cc3F)nc(C(=O)NC3CCN(S(C)(=O)=O)CC3)c2C1 [Compound 213, 3-(4-chloro-2-fluorophenyl)-7-methyl-N-(1-(methylsulfonyl)piperidin-4-yl)-5,6,7,8-tetrahydroimidazo[1,5-a]pyrazine-1-carboxamide]			EC50 [1, 2]: > 10000 nM; EC50 (rat CB2 receptor (rCB2); [3]): > 10000 nM
CNC(=O)[C@@H](NC(=O)c1nc(Cc2ccccc2)n2c1CN(C)CCC2)C(C)(C)C [Compound 459, (S)-3-benzyl-N-(3,3-dimethyl-1-(methylamino)-1-oxobutan-2-yl)-8-methyl-6,7,8,9-tetrahydro-5H-imidazo[1,5-a][1,4]diazepine-1-carboxamide]	> 10000	+	
CNC(=O)[C@@H](NC(=O)c1nc(-c2cc(F)c(F)c(F)c2)n2c1CN(C)CCC2)C(C)(C)C [Compound 375, (S)-N-(3,3-dimethyl-1-(methylamino)-1-oxobutan-2-yl)-8-methyl-3-(3,4,5-trifluorophenyl)-6,7,8,9-tetrahydro-5H-imidazo[1,5-a][1,4]diazepine-1-carboxamide]	> 10000	+	
CC(C)CN1CCn2c(-c3ccccc3)nc(C(=O)NC3C4(C)CCC(C4)C3(C)C)c2C1 (stereo not shown) [Compound 142, 7-isobutyl-3-phenyl-N-(1,3,3-trimethylbicyclo[2.2.1]heptan-2-yl)-5,6,7,8-tetrahydroimidazo[1,5-a]pyrazine-1-carboxamide]	> 10000	−	
CN1CCn2c(-c3ccccc3)nc(C(=O)N[C@H](C(N)=O)C(C)(C)C)c2C1 [Compound 285, (S)-N-(1-amino-3,3-dimethyl-1-oxobutan-2-yl)-7-methyl-3-phenyl-5,6,7,8-tetrahydroimidazo[1,5-a]pyrazine-1-carboxamide]	> 10000		EC50 (rat CB2 receptor (rCB2)): > 10000 nM
CNC(=O)[C@@H](NC(=O)c1nc(-c2cccnc2)n2c1CN(C)CC2)C(C)(C)C [Compound 252, (S)-N-(3,3-dimethyl-1-(methylamino)-1-oxobutan-2-yl)-7-methyl-3-(pyridin-3-yl)-5,6,7,8-tetrahydroimidazo[1,5-a]pyrazine-1-carboxamide]	> 10000	+	
C[C@H](NC(=O)c1nc(-c2ccccc2)n2c1CN(CCO)CC2)c1ccccc1 [Compound 146, (S)-7-(2-hydroxyethyl)-3-phenyl-N-(1-phenylethyl)-5,6,7,8-tetrahydroimidazo[1,5-a]pyrazine-1-carboxamide]	> 10000	−	
CNC(=O)[C@@H](NC(=O)c1nc(-c2ccc(F)c(C#N)c2)n2c1CN(C)CCC2)C(C)(C)C [Compound 425, (S)-3-(3-cyano-4-fluorophenyl)-N-(3,3-dimethyl-1-(methylamino)-1-oxobutan-2-yl)-8-methyl-6,7,8,9-tetrahydro-5H-imidazo[1,5-a][1,4]diazepine-1-carboxamide]	> 10000	+	
O=C(NCC1CCOCC1)c1nc(-c2ccccc2)n2c1CNCC2 [Compound 46, 3-phenyl-N-((tetrahydro-2H-pyran-4-yl)methyl)-5,6,7,8-tetrahydroimidazo[1,5-a]pyrazine-1-carboxamide]		−	EC50 [1, 2]: > 10000 nM
O=C(Nc1ccccc1)c1nc(-c2ccccc2)n2c1CNCC2 [Compound 41, N,3-diphenyl-5,6,7,8-tetrahydroimidazo[1,5-a]pyrazine-1-carboxamide]			EC50 [1, 2]: > 10000 nM; EC50 (rat CB2 receptor (rCB2); [3]): > 10000 nM
CNC(=O)[C@@H](NC(=O)c1nc(-c2ccncc2)n2c1CN(C)CCC2)C(C)(C)C [Compound 402, (S)-N-(3,3-dimethyl-1-(methylamino)-1-oxobutan-2-yl)-8-methyl-3-(pyridin-4-yl)-6,7,8,9-tetrahydro-5H-imidazo[1,5-a][1,4]diazepine-1-carboxamide]	> 10000	+	
CNC(=O)[C@@H](NC(=O)c1nc(-c2ccccc2Cl)n2c1CN(C)CC2)C(C)(C)C [Compound 253, (S)-3-(2-chlorophenyl)-N-(3,3-dimethyl-1-(methylamino)-1-oxobutan-2-yl)-7-methyl-5,6,7,8-tetrahydroimidazo[1,5-a]pyrazine-1-carboxamide]	> 10000	+	
CNC(=O)[C@@H](NC(=O)c1nc(-c2ccccc2)n2c1CN(c1cccc(Cl)n1)CC2)C(C)(C)C [Compound 299, (S)-7-(6-chloropyridin-2-yl)-N-(3,3-dimethyl-1-(methylamino)-1-oxobutan-2-yl)-3-phenyl-5,6,7,8-tetrahydroimidazo[1,5-a]pyrazine-1-carboxamide]		−	+/− HCB1 [1]: +
CNC(=O)[C@@H]1CCCN1C(=O)c1nc(-c2ccccc2)n2c1CNCCC2 [Compound 602]			+/− HCB1 [1]: −; EC50 (rat CB2 receptor (rCB2)): > 10000 nM
CC12CCC(C1)C(C)(C)C2NC(=O)c1nc(-c2ccccc2)n2c1CN(CCO)CC2 (stereo not shown) [Compound 143, 7-(2-hydroxyethyl)-3-phenyl-N-(1,3,3-trimethylbicyclo[2.2.1]heptan-2-yl)-5,6,7,8-tetrahydroimidazo[1,5-a]pyrazine-1-carboxamide]	> 10000	−	
CNC(=O)[C@@H](NC(=O)c1nc(-c2ccc(S(=O)(=O)N(C)C)cc2)n2c1CN(C)CCC2)C(C)(C)C [Compound 410, (S)-N-(3,3-dimethyl-1-(methylamino)-1-oxobutan-2-yl)-3-(4-(N,N-dimethylsulfamoyl)phenyl)-8-methyl-6,7,8,9-tetrahydro-5H-imidazo[1,5-a][1,4]diazepine-1-carboxamide]	> 10000		EC50 (rat CB2 receptor (rCB2)): > 10000 nM
CCCNC(=O)[C@@H](NC(=O)c1nc(-c2ccccc2)n2c1CN(C)CCC2)C(C)(C)C [Compound 473, (S)-N-(3,3-dimethyl-1-oxo-1-(propylamino)butan-2-yl)-8-methyl-3-phenyl-6,7,8,9-tetrahydro-5H-imidazo[1,5-a][1,4]diazepine-1-carboxamide]	> 10000	+	
CCCC/C=C/c1nc(C(=O)N[C@H](C(=O)NC)C(C)(C)C)c2n1CCCN(C)C2 [Compound 400, (S,E)-N-(3,3-dimethyl-1-(methylamino)-1-oxobutan-2-yl)-3-(hex-1-enyl)-8-methyl-6,7,8,9-tetrahydro-5H-imidazo[1,5-a][1,4]diazepine-1-carboxamide]	> 10000	+	
CN1CCCn2c(-c3cc(F)c(F)cc3F)nc(C(=O)N[C@@H](CC(C)(C)C)C(N)=O)c2C1 [Compound 590, (S)-N-(1-amino-4,4-dimethyl-1-oxopentan-2-yl)-8-methyl-3-(2,4,5-trifluorophenyl)-6,7,8,9-tetrahydro-5H-imidazo[1,5-a][1,4]diazepine-1-carboxamide]		+	+/− HCB1 [1]: +
CN1CCCn2c(-c3ccc(F)cc3F)nc(C(=O)N[C@@H](CC(C)(C)C)C(N)=O)c2C1 [Compound 589, (S)-N-(1-amino-4,4-dimethyl-1-oxopentan-2-yl)-3-(2,4-difluorophenyl)-8-methyl-6,7,8,9-tetrahydro-5H-imidazo[1,5-a][1,4]diazepine-1-carboxamide]		+	+/− HCB1 [1]: +
CNC(=O)[C@@H](NC(=O)c1nc(-c2cccs2)n2c1CNCC2)C(C)(C)C [Compound 16, (S)-N-(3,3-dimethyl-1-(methylamino)-1-oxobutan-2-yl)-3-(thiophen-2-yl)-5,6,7,8-tetrahydroimidazo[1,5-a]pyrazine-1-carboxamide]	> 10000	+	
CNC(=O)[C@@H](NC(=O)c1nc(-c2ccccc2)n2c1CN(C(=O)C(C)C)CC2)C(C)(C)C [Compound 191, (S)-N-(3,3-dimethyl-1-(methylamino)-1-oxobutan-2-yl)-7-isobutyryl-3-phenyl-5,6,7,8-tetrahydroimidazo[1,5-a]pyrazine-1-carboxamide]	> 10000	−	
CC(C)C[C@H](NC(=O)c1nc(-c2ccc(F)cc2)n2c1CN(C)CCC2)C(N)=O [Compound 565, (S)-N-(1-amino-4-methyl-1-oxopentan-2-yl)-3-(4-fluorophenyl)-8-methyl-6,7,8,9-tetrahydro-5H-imidazo[1,5-a][1,4]diazepine-1-carboxamide]	> 10000	+	
